Data from US7273880B2, “Selective NPY (Y5) antagonists” (H. Lunbeck A/S, priority 1999, dated 2007).
Structures can show the parent of a compound that is named as a salt.

Target: T1, human Y5 receptor (hNPY-5) (Homo sapiens, UniProt Q15761)
T1 construct: expressed in transfected cells; host or cells: mouse fibroblast LM(tk-) cells, e.g. L-hY5-7 (ATCC CRL-11995)
T1 sequence (Q15761 1-445): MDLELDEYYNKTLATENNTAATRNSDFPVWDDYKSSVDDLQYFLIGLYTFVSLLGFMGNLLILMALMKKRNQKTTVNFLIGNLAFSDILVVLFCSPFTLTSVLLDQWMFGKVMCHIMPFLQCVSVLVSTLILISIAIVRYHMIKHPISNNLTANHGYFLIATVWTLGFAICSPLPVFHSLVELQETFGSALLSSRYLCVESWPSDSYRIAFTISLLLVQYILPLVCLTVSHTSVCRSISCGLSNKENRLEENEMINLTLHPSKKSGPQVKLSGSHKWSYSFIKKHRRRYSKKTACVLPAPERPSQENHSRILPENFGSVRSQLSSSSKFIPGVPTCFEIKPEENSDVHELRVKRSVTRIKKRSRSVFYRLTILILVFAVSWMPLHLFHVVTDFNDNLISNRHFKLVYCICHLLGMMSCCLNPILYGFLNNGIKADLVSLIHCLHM
Assay: Radioligand binding to membranes, cloned human Y5 receptor
Details: cloned human NPY Y5 receptor, radioligand competition binding; Tables 1-3; read-out: Ki, nM hNPY-5
Protocol: Binding of the compounds of the present invention to human Y1, Y2, Y4, and Y5 receptors was evaluated using stably transfected 293 or LM(tk-) cells as described above. Stably transfected cell lines which may be used for binding assays include, for example, for the human Y1 receptor, 293-hY1-5 (deposited Jun. 4, 1996, under ATCC Accession No. CRL-12121), for the human Y2 receptor, 293-hY2-10 (deposited Jan. 27, 1994, under ATCC Accession No. CRL-11537), for the human Y4 receptor, L-hY4-3 (deposited Jan. 11, 1995, under ATCC Accession No. CRL-11779), and for human Y5 receptor, L-hY5-7 (deposited Nov. 15, 1995, under ATCC Accession No. CRL-11995). These cell lines were deposited with the American Type Culture Collection (ATCC), 10801 University Blvd., Manassas, Va. 20110-2209, U.S.A. under the provisions of the Budapest Treaty for the International Recognition of the Deposit of Microorganisms for the Purposes of Patent Procedure.
Membranes were harvested from COS-7 cells 48 hours after transient transfection. Adherent cells were washed twice in ice-cold phosphate buffered saline (138 mM NaCl, 8.1 mM Na2HPO4, 2.5 mM KCl, 1.2 mM KH2PO4, 0.9 mM CaCl2, 0.5 mM MgCl2, pH 7.4) and lysed by sonication in ice-cold sonication buffer (20 mM Tris-HCl, 5 mM EDTA, pH 7.7). Large particles and debris were cleared by low speed centrifugation (200×g, 5 min, 4° C.). Membranes were collected from the supernatant fraction by centrifugation (32,000×g, 18 min, 4° C.), washed with ice-cold hypotonic buffer, and collected again by centrifugation (32,000×g, 18 min, 4° C.). The final membrane pellet was resuspended by sonication into a small volume of ice-cold binding buffer (˜1 ml for every 5 plates: 10 mM NaCl, 20 mM HEPES, 0.22 mM KH2PO4, 1.26 mM CaCl2, 0.81 mM MgSO4, pH 7.4). Protein concentration was measured by the Bradford method (Bradford, 1976) using Bio-Rad Reagent, with bovine serum albumin as a standard. Membranes were held on ice for up to one hour and used fresh, or flash-frozen and stored in liquid nitrogen.
Membranes were prepared similarly from 293, LM(tk-), and NIH-3T3 cells. To prepare membranes from baculovirus infected cells, 2×10^7 Sf21 cells were grown in 150 mm tissue culture dishes and infected with a high-titer stock of hY5BB3. Cells were incubated for 2-4 days at 27° C., no CO2 before harvesting and membrane preparation as described above.
Membrane suspensions were diluted in binding buffer supplemented with 0.1% bovine serum albumin to yield an optimal membrane protein concentration so that ^125I-PYY (or alternative radioligand such as ^125I-NPY, ^125I-PYY3-36, or ^125I-[Leu^31Pro^34]PYY) bound by membranes in the assay was less than 10% of ^125I-PYY (or alternative radioligand) delivered to the sample (100,000 dpm/sample=0.08 nM for competition binding assays). ^125I-PYY (or alternative radioligand) and peptide competitors were also diluted to desired concentrations in supplemented binding buffer. Individual samples were then prepared in 96-well polypropylene microtiter plates by mixing 125I-PYY (25 μL) (or alternative radioligand), competing peptides or supplemented binding buffer (25 μL), and finally, membrane suspensions (200 μL). Samples were incubated in a 30° C. water bath with constant shaking for 120 min. Incubations were terminated by filtration over Whatman GF/C filters (pre-coated with 1% polyethyleneimine and air-dried before use), followed by washing with 5 mL of ice-cold binding buffer. Filter-trapped membranes were impregnated with MeltiLex solid scintillant (Wallac, Turku, Finland) and counted for ^125I in a Wallac Beta-Plate Reader. Alternatively, incubations were carried out in GF/C filter plates (pre-coated with 1% polyethyleneimine and air-dried before use), followed by vacuum filtration and three washes of 300 μL of ice-cold binding buffer. 50 μL of UltimaGold (Packard) scintillant were added and counted for ^125I in a Wallac MicroBeta Trilux. […]

| SMILES | Ki |
| --- | --- |
| CN(C)S(=O)(=O)NCCCCCNc1nc2c(s1)CCCc1ccc(F)cc1-2 [Example 2, 1-Aza-9-fluoro-4,5-dihydro-2-{5-(dimethyl-aminosulfonyl-amino)pentyl}amino-3-thia-benzo[e]azulene] | 1.6 nM |
| CN(C)S(=O)(=O)NCCCCNc1nc2c(s1)CCCc1ccc(F)cc1-2 [Example 6, 1-Aza-9-fluoro-4,5-dihydro-2-(4-(dimethyl-aminosulfonyl-amino)butyl)amino-3-thia-benzo[e]-azulene] | 3.1 nM |
| O=S(=O)(NCCCCNc1nc2c(s1)CCCc1ccc(F)cc1-2)c1cccc2ccccc12 [Example 8, 1-Aza-9-fluoro-4,5-dihydro-2-(4-(1-naphthyl)sulfonyl-amino)butylamino-3-thia-benzo[e]azulene] | 94 nM |
| CC(C)S(=O)(=O)NCCCCCNc1nc2c(s1)CCCc1ccc(F)cc1-2 [Example 13, 1-Aza-9-fluoro-4,5-dihydro-2-(5-isopropyl-sulfonylamino)-pentylamino-3-thia-benzo[e]azulene] | 132 nM |
| COc1ccc(S(=O)(=O)N[C@H]2CC[C@H](Nc3nc4c(s3)CCCc3ccc(F)cc3-4)CC2)cc1 [Example 36, trans-1-Aza-9-fluoro-4,5-dihydro-2-(4-(4-methoxy-phenyl)sulfonylamino)cyclohexylamino-3-thia-benzo[e]-azulene] | 60 nM |
| O=S(=O)(NC[C@H]1CC[C@H](Nc2nc3c(s2)CCCc2ccc(F)cc2-3)CC1)C(F)(F)F [Example 41, trans-1-Aza-9-fluoro-2-{4-trifluoromethylsulfonyl-aminomethyl}cyclohexylamino-4,5-dihydro-3-thiabenzo[e]-azulene] | 30 nM |
| CCS(=O)(=O)N[C@H]1CC[C@H](CNc2nc3c(s2)CCCc2ccc(F)cc2-3)CC1 [Example 52, trans-N2-(4-Ethylsulfonylamino)cyclohexylmethyl-9-fluoro-5,6-dihydro-4H-benzo[6,7]cyclohepta[d][1,3]-thiazol-2-amine] | 1.7 nM |
| CC(C)S(=O)(=O)N[C@H]1CC[C@H](CNc2nc3c(s2)CCCc2ccc(F)cc2-3)CC1 [Example 53, trans-1-Aza-9-fluoro-4,5-dihydro-2-{4-isopropyl-sulfonylamino}cyclohexylmethylamino-3-thia-benzo[e]-azulene] | 3.2 nM |
| O=S(=O)(NCCCCCNc1nc2c(s1)CCCc1ccc(F)cc1-2)c1cccnc1 [Example 55, 1-Aza-9-fluoro-4,5-dihydro-2-(5-(3-pyridyl)sulfonyl-amino)pentylamino-3-thia-benzo[e]azulene] | 3.4 nM |
| O=S(=O)(NCCCCNc1nc2c(s1)CCCc1ccc(F)cc1-2)c1cccnc1 [Example 56, 1-Aza-9-fluoro-4,5-dihydro-2-(4-(3-pyridyl)sulfonyl-amino)butylamino-3-thia-benzo[e]azulene] | 26 nM |
| COc1ccc(C)cc1S(=O)(=O)NCCOCCNc1nc2c(s1)CCCc1ccc(F)cc1-2 [Example 58, 1-Aza-9-fluoro-4,5-dihydro-2-{2-[2-(2-methoxy-5-methylphenyl)sulfonylamino]ethoxy}ethylamino-3-thia-benzo[e]azulene] | 3 nM |
| O=S(=O)(NC[C@H]1CC[C@H](Nc2nc3c(s2)CCCc2ccc(F)cc2-3)CC1)c1cccnc1 [Example 59, trans-1-Aza-9-fluoro-4,5-dihydro-2-(4-(3-pyridyl)-sulfonylaminomethyl)cyclohexylamino-3-thia-benzo[e]-azulene] | 2.3 nM |
| COc1ccc2c(c1)-c1nc(NC[C@H]3CC[C@H](NS(C)(=O)=O)CC3)sc1CCO2 [Example 63, trans-1-Aza-4,5-dihydro-9-methoxy-2-{4-methylsulfonyl-amino}cyclohexylmethylamino-6-oxa-3-thia-benzo[e]azulene] | 31 nM |
| COc1cccc2c1OCCc1sc(NC[C@H]3CC[C@H](NS(C)(=O)=O)CC3)nc1-2 [Example 65, trans-N2-(4-Methylsulfonylamino)cyclohexylmethyl-7-methoxy-4,5-dihydro-benzo[2,3]oxepino[4,5-d][1,3]-thiazol-2-amine hydrochloride] | 11.6 nM |
| COc1cccc2c1OCCc1sc(NC[C@H]3CC[C@H](NS(=O)(=O)N(C)C)CC3)nc1-2 [Example 66, trans-1-Aza-4,5-dihydro-7-methoxy-2-{4-dimethylamino-sulfonylamino}cyclohexylmethylamino-6-oxa-3-thia-benzo[e]azulene] | 2 nM |
| COP(=O)(N[C@H]1CC[C@H](CNc2nc3c(s2)CCCc2ccc(F)cc2-3)CC1)OC [Example 67, trans-N2-(4-Dimethylphosphonylamino)cyclohexylmethyl-9-fluoro-5,6-dihydro-4H-benzo[6,7]cyclohepta[d][1,3]-thiazol-2-amine] | 5.5 nM |
| CCOC(=O)N[C@H]1CC[C@H](CNc2nc3c(s2)CCCc2ccc(F)cc2-3)CC1 [Example 68, trans-N2-(4-Ethoxycarbonylamino)cyclohexylmethyl-9-fluoro-5,6-dihydro-4H-benzo[6,7]cyclohepta[d][1,3]-thiazol-2-amine hydrochloride] | 4 nM |
| CC(C)S(=O)(=O)NCCOCCNc1nc2c(s1)CCCc1ccc(F)cc1-2 [Example 69, 1-Aza-9-fluoro-4,5-dihydro-2-(2-(2-isopropyl-sulfonylamino)-ethoxy)ethylamino-3-thia-benzo[e]-azulene] | 4.1 nM |
| CS(=O)(=O)NCC1CCC(Nc2nc3c(s2)COc2ccccc2-3)CC1 (centres unmarked) [Example 70, 2-(4-Methylsulfonylaminomethyl)cyclohexylamino-4H-chromeno[4,3-d]thiazole] | 21 nM |
| COc1ccc2c(c1)CCCc1sc(NC[C@H]3CC[C@H](NS(C)(=O)=O)CC3)nc1-2 [Example 71, trans-1-Aza-4,5-dihydro-8-methoxy-2-(4-methylsulfonyl-amino)cyclohexylmethylamino-3-thia-benzo[e]azulene] | 2.5 nM |
| COc1ccc2c(c1)CCCc1sc(N[C@H]3CC[C@H](CNS(=O)(=O)C(C)C)CC3)nc1-2 [Example 73, trans-1-Aza-4,5-dihydro-2-(4-isopropylsulfonyl-aminomethyl)-cyclohexylamino-8-methoxy-3-thia-benzo[e]-azulene] | 8.7 nM |
| COc1cccc2c1OCCc1sc(N[C@H]3CC[C@H](CNS(C)(=O)=O)CC3)nc1-2 [Example 74, trans-1-Aza-4,5-dihydro-2-(4-methylsulfonylamino-methyl)-cyclohexylamino-7-methoxy-3-thia-benzo[e]-azulene] | 37 nM |
| CCC(=O)NC[C@H]1CC[C@H](Nc2nc3c(s2)CCCc2ccc(F)cc2-3)CC1 [Example 75, trans-1-Aza-4,5-dihydro-2-(4-ethylcarbonylamino-methyl)-cyclohexylamino-9-fluoro-3-thia-benzo[e]-azulene] | 36 nM |
